# Source: patent publication US7297759B2, “Peptides for increasing transfection efficiency” (Welgene, Inc., priority 2002, dated 2007)
# Assays:
# HeLa cells = experiment: Luciferase transfection efficiency of triple complex in HeLa cells; format: cell-based; conditions: for luciferase activity for various peptides: DNA:peptide:DP liposomes 1:4:4 (w/w/w), compared to Tat and Sc-Tat control peptides, FIG. 9A
# Description: In order to test transfection efficiency, the TatC peptide was precomplexed with the pcDNA3-luciferase vector DNA in 50 ul OPTI-MEM medium and was incubated for 5 minutes at room temperature. The DP liposomes was prepared in a 50 ul OPTI-MEM medium and added to the preformed complex of the TatC peptide and pcDNA3-luciferase vector DNA. The ratio of each component in the triple complex of the TatC peptide/DNA/DP liposomes was adjusted to 3:1:5 respectively. The triple complex of TatC peptide/DNA/DP liposomes was incubated for 10 minutes at room temperature and used for transfection into cells. After 5 hr incubation, 300 ul/well of the OPTI-MEM medium containing 20% Fetal Bovine Serum (FBS) was added into each transfection well. Further incubation for 16 hours was carried out before measuring transfection efficiency in luciferase activity using a luciferase assay kit (Promega, USA). To check luciferase activity of the pcDNA3-luciferase vector DNA, the following procedure was adopted. Cells were washed with PBS buffer (without Mg^2+ or Ca^2+) and lysed in 100 μl/well of 1×CCLR solution (Cell culture Lysis Reagent, 25 mM Tris-phosphate [pH 7.8], 2 mM DTT, 2 mM 1,2-diaminocyclohexane-N,N,N′,N′-tetraacetic acid, 10% glycerol, 1% Triton X-100). Cell lysates was centrifuged at 12,000×g for 1 minute and 50 ul supernatant was carefully harvested without disturbing the cell pellet. The cell lysates then mixed with 20 μl Luciferase Assay reagent. Luciferase activity was tested using a luminometer (Berthold detection systems, Sirius, Germany). As a negative control, the DP liposomes alone. […]
# To examine transfection efficiency in the presence or absence of serum, the TatC/DNA(pcDNA3-luc)/DP liposomes triple complex of the present invention was transfected into HeLa and K562 cells in a medium with or without 10% FBS (FIG. 13A and B). A complex of DNA and liposomes was used as a negative control.
# cells = experiment: Luciferase transfection efficiency of TatC peptide/DNA/cationic liposome triple complex (FIG. 1, FIG. 2); format: cell-based
# Description: In order to test transfection efficiency, the TatC peptide was precomplexed with the pcDNA3-luciferase vector DNA in 50 ul OPTI-MEM medium and was incubated for 5 minutes at room temperature. The DP liposomes was prepared in a 50 ul OPTI-MEM medium and added to the preformed complex of the TatC peptide and pcDNA3-luciferase vector DNA. The ratio of each component in the triple complex of the TatC peptide/DNA/DP liposomes was adjusted to 3:1:5 respectively. The triple complex of TatC peptide/DNA/DP liposomes was incubated for 10 minutes at room temperature and used for transfection into cells. After 5 hr incubation, 300 ul/well of the OPTI-MEM medium containing 20% Fetal Bovine Serum (FBS) was added into each transfection well. Further incubation for 16 hours was carried out before measuring transfection efficiency in luciferase activity using a luciferase assay kit (Promega, USA). To check luciferase activity of the pcDNA3-luciferase vector DNA, the following procedure was adopted. Cells were washed with PBS buffer (without Mg^2+ or Ca^2+) and lysed in 100 μl/well of 1×CCLR solution (Cell culture Lysis Reagent, 25 mM Tris-phosphate [pH 7.8], 2 mM DTT, 2 mM 1,2-diaminocyclohexane-N,N,N′,N′-tetraacetic acid, 10% glycerol, 1% Triton X-100). Cell lysates was centrifuged at 12,000×g for 1 minute and 50 ul supernatant was carefully harvested without disturbing the cell pellet. The cell lysates then mixed with 20 μl Luciferase Assay reagent. Luciferase activity was tested using a luminometer (Berthold detection systems, Sirius, Germany). As a negative control, the DP liposomes alone.
# The TatC peptide/DNA (pcDNA3-luciferase vector)/LFA liposome complex was prepared as described in Example 3.1. Transfection was carried out according to the manufacturer's recommended protocol (Life Technologies, USA), and was tested for luciferase activity.
# To deteremine if enhanced transfection efficiency could be attained, a TatC Peptide/DNA/cationic liposomes triple complex were formed by mixing them in different order. […]
# WRT7/P2 cells = experiment: Cellular uptake of FITC-labeled oligonucleotide; format: cell-based, rat; conditions: TatC peptide/DNA/LFA triple complex compared to LFA liposomes alone; FIG. 8
# Description: Next, transfection efficiency of nucleic acid by the triple complex was tested for oligonucleotides labeled with FITC at both ends. Oligonucleotides were complexed with the TatC peptide and LFA liposomes and were transfected to a rat monocytic cell line, WRT7/P2. The transfected cells were then assayed for FITC-fluorescence. We observed that cellular uptake of the oligonucleotides with the TatC peptide/DNA/LFA triple complex was much higher than delivered with LFA liposomes alone (FIG. 8). […] Therefore, the TatC peptide delivery system of the present invention may be effectively utilized for efficient delivery into cells regardless of the types of DNA to be delivered.
# K562 cells = experiment: Luciferase transfection efficiency of triple complex in K562 cells; format: cell-based; conditions: TatC/DNA(pcDNA3-luc)/DP liposomes, FIG. 13B
# Description: In order to test transfection efficiency, the TatC peptide was precomplexed with the pcDNA3-luciferase vector DNA in 50 ul OPTI-MEM medium and was incubated for 5 minutes at room temperature. The DP liposomes was prepared in a 50 ul OPTI-MEM medium and added to the preformed complex of the TatC peptide and pcDNA3-luciferase vector DNA. The ratio of each component in the triple complex of the TatC peptide/DNA/DP liposomes was adjusted to 3:1:5 respectively. The triple complex of TatC peptide/DNA/DP liposomes was incubated for 10 minutes at room temperature and used for transfection into cells. After 5 hr incubation, 300 ul/well of the OPTI-MEM medium containing 20% Fetal Bovine Serum (FBS) was added into each transfection well. Further incubation for 16 hours was carried out before measuring transfection efficiency in luciferase activity using a luciferase assay kit (Promega, USA). To check luciferase activity of the pcDNA3-luciferase vector DNA, the following procedure was adopted. […]
# In order to test transfection efficiency of the triple complex, TatC peptide and liposomes (DP or LFA) were mixed with plasmid DNA in various ratios. […] Luciferase activity was then measured as described in Example 3.1.
# The TatC peptide shown in Example 2.1 was modified with RGD amino acid sequence at both N-and C-termini. […] Luciferase activity was measured for each transfected cells as described in Example 3.1. […]
# kidney of SD rats = experiment: In vivo delivery of LacZ plasmid by retrograde ureteral injection, X-gal staining of kidney sections; set-up: species or system rat; conditions: TatC:DNA:DP=4:1:4, retrograde injection, male SD rats, compared to DNA/liposome or DNA alone, FIG. 16
# Description: To test the transfection efficiency of the peptide/DNA/liposomes triple complex in vivo, the following experiment was performed. Male Sprague-Dawley (SD) rats (Hamamatsu, Shizuoka, Japan) were supplied from SLC and were housed in groups of 6 with free access to standard chow and water. Male SD rats, weighing 200-250 g, were used in these experiments. After anesthesia by the intraperitoneal injection of pentobarbital (5 mg/100 g body weight), the left kidney was exposed via an abdominal midline incision. Rats were subjected to ureteral ligation proximal to the left kidney, which was followed by retrograde injection of the triple complex (TatC: DNA: DP=4:1:4) using a 24 gauge catheter syringe. Kidneys were harvested 24 hours after injection of the triple complex. and embedded in a Tissue-Tek™ OCT compound (Miles, Elkhart, Ill.) under liquid nitrogen. Tissue blocks of the perfusion-fixed kidney with 4% paraformaldehyde were cryosectioned to 10 μm thickness and mounted on Poly-Prep™ slides (Sigma, St. Louise, Mo.). After dissection of individual kidneys, kidney sections were fixed with 0.05% glutaraldehyde in PBS by perfusion for 15 min, and incubated in X-gal solution (1.5 mM potassium ferricyanide, 1.5 mM potassium ferrocyanide, and 1% X-gal) at 37° C. for 4 h. Tissue sections of 4 μm were counterstained with hematoxylin and examined using a microscope at 400 fold magnification.
# [1] = system: 293, HT-29, HL-60, MCF-7, A549, NC1-H1299, WI-38VA13, HepG2 and Hep3B cells; experiment: Luciferase transfection efficiency of triple complex in 9 different cell lines; format: cell-based, human; conditions: various ratios
sequence,measurement,setting,value
RKKRRQRRRPPQCRGDRGD (TatC-RGD-RGD),luciferase activity for various peptides,HeLa cells,markedly higher luciferase activity
RKKRRQRRRPPQC (TatC),transfection efficiency according to mixing order,"cells; TatC peptide and DNA mixed first, then cationic liposome (LFA), compared with other mixing orders, FIG. 2",highest
same,transfection activity (luciferase),"cells; TatC peptide/DNA/LFA liposome complex compared to LFA liposomes only, FIG. 1",higher transfection activity
same,luciferase activity,"cells; triple complex TatC peptide/DNA/DP liposomes 3:1:5, compared to DP liposomes alone, FIG. 1",significantly enhances luciferase activity
same,cellular uptake of FITC-labeled oligonucleotides (FITC-fluorescence),WRT7/P2 cells,much higher
same,luciferase activity with or without 10% FBS,K562 cells,higher in medium containing serum
same,expression of the β-galactosidase gene in kidney,kidney of SD rats,observed only in the group treated with the complex composed of TatC/DNA/liposomes
same,luciferase activity,"[1]; triple complex TatC peptide/DNA/DP, compared to DP liposomes alone, FIG. 6",remarkably higher luciferase activity
same,luciferase activity,"[1]; triple complex TatC peptide/DNA/LFA, compared to liposomes alone, FIG. 7",Analogous results
same,luciferase activity for various peptides,HeLa cells,markedly higher luciferase activity
same,luciferase activity with or without 10% FBS,"HeLa cells; TatC/DNA(pcDNA3-luc)/DP liposomes, HeLa, FIG. 13A",higher in medium containing serum
"RKKRRQRRRPPQ (Tat) [Tat peptide containing the NLS motif without any modification, control, reference compound]",luciferase activity for various peptides,HeLa cells,comparably low
"RRKRQRKRRPQP (Scrambled Tat(Sc-Tat)) [scrambled Tat peptide with random disturbance of the NLS motif, negative control, reference compound]",luciferase activity for various peptides,HeLa cells,comparably low
RGDRKKRRQRRRPPQCRGD (RGD-TatC-RGD),luciferase activity for various peptides,HeLa cells,markedly higher luciferase activity
